Consider one compound from patent US20230241000A1, “GSK3 INHIBITOR-LOADED NANO FORMULATIONS AS A CANCER IMMUNOTHERAPEUTIC” (The Regents of the University of California, priority 2020, published 2023).

The subject of one test is MC38 colon cancer. Briefly: MC38 syngeneic colon cancer model, subcutaneous tumor growth. The format is in vivo, C57BL/6 mice. As for the experimental part: Treatment was repeated every three days for a total of three administrations. Mice were sacrificed four days after the final treatment. The study was executed as two separate experiments, using animal group sizes of n=6 and n=9, respectively. […] The first set of analyses was performed on the tumor volume growth curves (FIG. 5, panel A), impact on final tumor volumes (FIG. 5, panel B) and tumor weight (FIG. 5, panel C) at the time of sacrifice.
MC38 cells, stably transfected with a luciferase vector, were inoculated into the right flank of C57BL/6 mice, using 0.7×10^6 cells in 40% Matrigel 1×PBS solution. Tumors were allowed to grow to a size of ˜50 mm^3 prior to the initiation of treatment, approximately 14 days after initial inoculation. Mice with outlier tumor sizes (either too small or too large) were excluded from further study. The remaining animals were randomly assigned to the different treatment groups. Mice were treated with three injections, set three days apart, and were sacrificed 4 days after the final treatment administration. […] Two separate experiments were performed, the first with n=6 mice per group and the second with n=9 animals.

Another test deals with GSK3. Conditions: values provided by chemical vendors (Cayman Chemical, Selleck Chemicals); cited from earlier work.
Test [1] deals with CD8+ T-cells in MC38 tumors. The experiment in a line: Flow cytometry of tumor-infiltrating CD8+ T-cells in MC38 tumors. The format is in vivo, C57BL/6 mice. An excerpt: In order to address the change in the immunological landscape with treatment, we asked whether sAZD1080 could impact the immune parameters that underpin treatment efficacy for immune checkpoint blocking antibodies. These include the CD8^+ cell number, the abundance of PD-1 expression on these cells, perforin release and the generation of cancer cell death, as reflected by activated caspase 3. For the first analysis, tumor cell digests were used to assess the number of CD8^+/CD107a^+/granzyme B^+ lymphocytes by flow cytometry (14, 30). […] In order to assess the status of PD-1 expression on CD8+ cells, flow cytometry was used to assess the % of […] cells in the tumor digests (14, 31).
Tumors were harvested from MC38 mice after sacrifice. Tumors larger than 100 mm^3 were divided in two, with one half preserved for histology and the other half used to conduct flow cytometry. To prepare samples for flow cytometry, tumor chunks of 2-3 mm^3 were incubated in an enzyme cocktail (1 mg/mL collagenase type IV, 2000 U DNase type IV, 0.1 mg/mL hyaluronidase type V in 1×HBSS) for 1 hour, and the digests passed through a 70 μm nylon filter. Cells were pelleted and washed in HBSS.
Cells were diluted in cell staining buffer, pelleted by centrifuging at 350×g for 5 minutes, and washed twice. […]

The test system of a further test is Tbx21 expression. Briefly: RT-qPCR of Tbx21 in anti-CD3 activated primary murine T-cells. In kind it is cell-based, C57BL/6 mouse. Conditions: 10 μM, 72 hours, normalized against Gapdh. As for the experimental part: This is compatible with the translational expression of T-bet, a transcription factor that interferes in PD-1 expression (FIG. 1, panel B).
Wells of a 96-well tissue culture plate were coated with anti-mouse CD3 antibody (Ultra-LEAF, Biolegend). 7.5 μL of 1 mg/mL antibody solution was diluted in 1 mL of 1×PBS, before 50 μL of the dilution was added to each plate well for 2 hours at 37° C. The wells were then thoroughly washed 3× with 1×PBS.
T-cells were extracted from C57BL/6 mouse spleens, using a standard procedure with minor modifications (71). Two mouse spleens were mechanically disrupted and the released cells were passed through a 70 μm filter. Red blood cells were lysed using RBC lysis buffer (eBioscience) at 4° C. for 5 minutes. 10 mL of 1×PBS was added to stop the lysis process, following which cells were pelleted at 300×g for 5 minutes. […]
Cells were collected and RNA was extracted using Direct-zol RNA MiniPrep Plus kits (Zymo), as per the manufacturer's instructions. Extracted RNA was converted into cDNA using SuperScript III First-Strand Synthesis System kits (Invitrogen). cDNA from treated T-cells was analyzed by RT-PCR using a LightCycler 480 instrument (Roche) and the LightCycler 480 SYBR Green I Master kit (Roche), per manufacturer's instructions. cDNA was analyzed using forward and reverse primers for Pdcd1, Tbx21, and Gapdh as a control, as described previously (10, 14). […]

SMILES strings stand for the structures. pIC50: −log10 of the molar value.

`N#Cc1ccc2[nH]c(O)c(-c3ccc(CN4CCOCC4)cn3)c2c1` [AZD1080]: in the test on MC38 colon cancer (MC38, three administrations, n=15 per group), the “number of tumor-free animals at time of sacrifice (out of 15)” value is recorded as 3/15. The “tumor growth inhibition in MC38 (significance vs saline)” value in the test on MC38 colon cancer (three administrations every three days, sAZD1080 5 mg/kg IV, free AZD1080 5 mg/kg IP, SB415286 8 mg/kg IP, anti-PD-1 4 mg/kg IP, n=15) is reported as “no significant effect on tumor growth inhibition”. The negative-log IC50 (pIC50) (as a rule, the negative decadic logarithm of the IC50, by convention in mol/L) in the test on GSK3 is 7.51. In test [1], the “% of CD8/PD-1+ cells in the tumor digests” value is reported as “did not impact”. Further, in the test with Tbx21 expression, the “Tbx21 mRNA expression” value is “increased”.
